{
  "source": "paper PMC9862096",
  "about": "“Interaction of a Homologous Series of Amphiphiles with P-glycoprotein in a Membrane Environment—Contributions of Polar and Non-Polar Interactions” (Pharmaceutics, 2023)",
  "key": {"[1]": {"experiment": "Association (partition) with model membranes (LUVs POPE:POPC:POPS 45:35:20)", "assay_type": "physicochemical", "details": "aqueous phase to model lipid bilayer", "description": "The model membranes with a phospholipid composition representative of that of the native membranes (POPE:POPC:POPS 45:35 20) were prepared from stock solutions of the required lipids in chloroform or in chloroform/methanol (87/13, v/v), as described before. The solvent-free lipid residue was hydrated at 40 °C with previously heated simplified ATPase assay buffer (with all components except Ouabain and DTT). Large Unilamelar Vesicles were prepared by extrusion through two-staked polycarbonate filters (100 nm pore diameter), and the size of the LUVs was analyzed by dynamic light scattering (Zetasizer Nano ZS, Malvern, UK) being close to the filter pore size.\n(§1) The membranes were diluted to the chosen concentration with simplified ATPase assay buffer and warmed to 37 °C. The NBD amphiphiles were added from stocks in DMSO (final DMSO 1% v/v) by squirting the required volume into the membrane solution under gentle vortex. Fluorescence intensity was measured after 15 to 30 min incubation at 37 °C using a Cary Eclipse spectrofluorimeter (Varian, Singapore). The path length of the sample container was selected to guarantee that scattering at the excitation wavelength was smaller than 0.1 while maintaining a good signal/noise ratio (3, 5, or 10 mm).\n(§2) The increase in fluorescence of the NBD amphiphiles when associated with the model membranes was well described by a simple partition (Equation (S3)). The low affinity of the less lipophilic amphiphiles for the native membranes required the use of high membrane concentrations, and the fluorescence was measured with the plate reader SpectraMax iD5 (Molecular Devices, Berkshire, UK), where the reading setup is not very sensitive to scatter. To guarantee that the high scatter intensity was not leading to artifacts in the measured fluorescence intensity of NBD–C4, titrations of NBD-C6 and NBD–C8 were also performed in the same plate. For these two latter amphiphiles, the results obtained for the partition coefficient were similar to those obtained for experiments with low scatter intensity. A small decrease in the fluorescence intensity from NBD–C8 was nevertheless observed at very high scatter intensities (OD ≥ 0.5), which was used to correct the signal from the less lipophilic amphiphiles, see Supplementary Information (Figure S5 and Equation (S4)). The molar volume considered for the lipid was 0.8 dm^3/mol, and 1.2 g/mL was considered for the density of the membrane proteins.\nS3 – Partition of the NBD amphiphiles to lipid bilayers and native membranes\nThe fluorescence increase that accompanies the association of the NBD amphiphiles with the\nmodel membra nes was well defined by a simple partition, equation S3.\nIf 1540 nm Lb= + S3, KVL[]\nwhere IfW and If M are respec ti vel y the fluorescence intensity when all fluorescent amphiphile is\nin the aqueous phase and ass oci ated with the membranes, LbK is the partition co eff icient P\nbetween the aqueous and the lipid bilayer, V is the molar vo l u m e of the lipid when in the lipid L\nbi l ayer, and [L] is the lipid concentration. […]"}, "[2]": {"tested_on": "P–gp", "experiment": "Partition coefficient to membrane protein from Equations (1) and (2), binding to P–gp only", "assay_type": "physicochemical, mouse", "details": "binding to the protein P–gp only; for KPW→P: aqueous phase to protein; for KPLb→P: lipid bilayer to protein", "description": "(§3) From the partition coefficient obtained for the native membranes, KPW→M , and that for the model lipid bilayers, KPW→Lb , one can calculate the partition coefficient between the aqueous phase and the proteins in the membrane, KPW→P , and from the lipid bilayer to the proteins, KPLb→P , Equations (1) and (2), [40]. (1) KPW→M VM=KPW→PVP+KPW→Lb VLb (2) KPLb→P=KPW→P/KPW→Lb\n(§4) In Equation (1) it is necessary to include the volume occupied by the proteins, and the values obtained will, therefore, depend on whether it is considered that the amphiphile may interact with all proteins in the membrane or with P–gp only."}, "[3]": {"experiment": "Partition coefficient to membrane proteins from Equations (1) and (2), all membrane proteins with equal affinity", "assay_type": "physicochemical, High-Five insect cells", "details": "binding to all membrane proteins with equal affinity; for KPW→P: aqueous phase to proteins; for KPLb→P: lipid bilayer to proteins", "description": "as §3, §4"}, "[4]": {"experiment": "Association (partition) of the NBD amphiphiles with native membranes, NBD fluorescence", "assay_type": "physicochemical, High-Five insect cells", "details": "for LogKP, association with the native membranes: 37 °C, simplified ATPase assay buffer; for KPW→M: aqueous phase to native membrane", "description": "as §1, §2\nS3 – Partition of the NBD amphiphiles to lipid bilayers and native membranes The fluorescence increase that accompanies the association of the NBD amphiphiles with the model membra nes was well defined by a simple partition, equation S3. […]\nwhere IfW and If M are respec ti vel y the fluorescence intensity when all fluorescent amphiphile is in the aqueous phase and ass oci ated with the membranes, LbK is the partition co eff icient P between the aqueous and the lipid bilayer, V is the molar vo l u m e of the lipid when in the lipid L bi l ayer, and [L] is the lipid concentration.\nTo characterize the association of the NBD amphiphiles with the native membranes the whole membrane vo lume was considere d, including the lipid bilayer and the membrane proteins. For the ca se of the less lipophilic amphiphiles NBD‐C4 and NBD‐C6, a sig nif ica nt scatter from the […]\nboth to the larger size of the vesicles (ca 1 µm diameter, [1]) and to the high refractive index of the native membranes. The magnitude of the scatter effect was quantified through the best fit […]\npartition to the membranes at co n ce ntrations where scatter is not significant. The modified […]\nwhere s is the scatter correction factor for a given concentration of native membranes, If W and IfM are respectively the fluorescence intensity when all fluorescent amphiphile is in the aqueous phase and associated with the membranes, WMK → is the partition coefficient between the P aqueous phase and the native membrane, V is the molar volume of the lipid when in the L membrane and [L] the molar concentration of the membrane lipids, V is the vo lume occupied P by 1 g of membrane protein (assuming a density of 1.2 g/mL) and [P] is the protein concentration in units of ma ss per volume.\nTypical results obtained for the variation of the fluorescence intensity at 540 nm of the NBD‐Cn fluorophores equilibrated with increasing concentrations of native membranes, are shown in figure S3. The fluorescence intensity was measured in black 96 well plates with the plate reader […]\nSpectraMax iD5. The NBD‐Cn concentrations we re 0.5 µM for NBD‐C8 , 1 µM for NBD‐C6, and 2 µM for NBD‐C4, and the total volume per well was 150 µL. […]"}, "[5]": {"details": "cited from earlier work"}, "[6]": {"experiment": "Critical aggregation concentration from NBD fluorescence (literature)", "assay_type": "physicochemical", "details": "extrapolated from the co-solvent effect on NBD–Cn", "description": "One important aspect which is usually overlooked in the studies of interactions with P–gp is whether the molecule of interest is in its monomeric state or aggregated. Some studies with detergents have included information regarding the formation of micelles and concluded that a complex effect on the ATPase activity (enhancement and inhibition) is observed even for concentrations below their CMC [21, 32, 91]. However, small aggregates are formed at concentrations several orders of magnitude smaller than the concentration at which micelles are detectable (their CMC). The aggregation behavior of the NBD amphiphiles used in this study was characterized by changes in the fluorescence properties of the NBD group and is, therefore, sensitive to the formation of small aggregates including dimers. The critical aggregation concentrations (CAC) at 25 °C are 1, 4, and 250 μM for NBD–C8, NBD–LysoMPE, and NBD–C4, respectively. […] An increase to at least 24 µM is thus predicted for NBD–LysoMPE."}, "[7]": {"details": "section: binding to all membrane proteins with equal affinity"}, "[8]": {"details": "section: binding to the protein P–gp only"}, "[9]": {"details": "membrane volume = phospholipid bilayer and P–gp (binding to the protein P–gp only)"}, "[10]": {"details": "membrane volume = phospholipid bilayer and all proteins (binding to all membrane proteins with equal affinity)"}},
  "data": [
    {"compound": "CCCCNc1ccc([N+](=O)[O-])c2nonc12", "note": "[NBD–C4]", "values": [
      {"measurement": "KPW→Lb", "setting": "[1]; [7]", "result": "3.9 × 10^2"},
      {"measurement": "KPW→Lb", "setting": "[1]; [8]", "result": "3.9 × 10^2"},
      {"measurement": "KPW→P", "setting": "[2]", "result": "6.9 × 10^4"},
      {"measurement": "KPLb→P", "setting": "[2]", "result": 176},
      {"measurement": "KPW→P", "setting": "[3]", "result": "6.9 × 10^2"},
      {"measurement": "KPLb→P", "setting": "[3]", "result": 1.8},
      {"measurement": "LogKP, association with the native membranes", "setting": "[4]", "result": "2.75 ± 0.20"},
      {"measurement": "KPW→M", "setting": "[4]; [9]", "result": "1.4 × 10^3"},
      {"measurement": "KPW→M", "setting": "[4]; [10]", "result": "5.7 × 10^2"}
    ]},
    {"compound": "CCCCCCCCNc1ccc([N+](=O)[O-])c2nonc12", "note": "[NBD–C8]", "values": [
      {"measurement": "KPW→Lb", "setting": "[1]; [7]", "result": "1.9 × 10^4"},
      {"measurement": "KPW→Lb", "setting": "[1]; [8]", "result": "1.9 × 10^4"},
      {"measurement": "KPW→P", "setting": "[2]", "result": "2.3 × 10^5"},
      {"measurement": "KPLb→P", "setting": "[2]", "result": 12},
      {"measurement": "KPW→P", "setting": "[3]", "result": "2.3 × 10^3"},
      {"measurement": "KPLb→P", "setting": "[3]", "result": 0.12},
      {"measurement": "LogKP, association with the native membranes", "setting": "[4]", "result": "3.95 ± 0.14"},
      {"measurement": "KPW→M", "setting": "[4]; [9]", "result": "2.2 × 10^4"},
      {"measurement": "KPW→M", "setting": "[4]; [10]", "result": "9.0 × 10^3"},
      {"measurement": "time for equilibration between both membrane leaflets (translocation)", "setting": "[5]; Section 3.4 and ref 77", "result": "within a few seconds"}
    ]},
    {"compound": "CCCCCCCCCCCCCC(=O)OCC(O)COP(=O)(O)OCCNc1ccc([N+](=O)[O-])c2nonc12", "note": "(stereo not shown) [NBD–LysoMPE]", "values": [
      {"measurement": "CAC predicted in the presence of co-solvents", "setting": "[6]", "result": "at least 24 µM"},
      {"measurement": "LogKP, association with the native membranes", "setting": "[4]", "result": "4.34 ± 0.25"},
      {"measurement": "characteristic time of translocation between membrane leaflets", "setting": "[5]", "result": "several hours"}
    ]}
  ]
}
